The results in this text go back to US20210322327A1, “EXTRACELLULAR VESICLES COMPRISING STING-AGONIST” (Codiak BioSciences, Inc., priority 2018, published 2021).

The subject of data set [1] is B16F10 melanoma cells. The experiment in a line: B16F10 subcutaneous primary tumor growth in lung metastasis challenge study. Type of data set: in vivo, C57BL/6 mice. As to conditions: by day 17. From the text: Activation of the STING pathway promotes antigen presentation and induces a durable T-cell response, as shown in Examples 11 and 12. Thus, the immune memory response induced by EXOSTING™ may be sufficient to prevent tumor metastasis after a local administration in a primary tumor. To test this hypothesis, exosomes purified from HEK293SF cells overexpressing PTGFRN were loaded with the cyclic dinucleotide 3-3 cAIMPdFSH as described in Example 1. C57BL/6 mice were inoculated subcutaneously with 1×10^6 B16F10 melanoma cells on day zero and challenged with an additional tail vein injection of 1×10^5 B16F10 melanoma cells to seed lung metastases (n=8 mice per group). Five, eight, and eleven days post-inoculation the mice were injected intratumorally at the subcutaneous tumor with PBS, 20 μg 3-3 cAIMPdFSH, 120 ng 3-3 cAIMPdFSH, or either 120 ng, 12 ng, or 1.2 ng 3-3 cAIMPdFSH loaded in PTGFRN-overexpressing exosomes (Exo STING Agonist). […] Lungs from all mice were harvested, imaged, and counted for metastases. […] As little as 12 ng of Exo STING Agonist prevented lung metastasis to the same extent as 20 μg STING Agonist (FIGS. 46B and 47).

In data set [2] the test system is STING pathway. Briefly: Cytokine levels after single intratumoral dose in C57BL/6 and STING knock-out tumor-bearing mice. Type of data set: in vivo, C57BL/6 mice and C57BL/6-Tmem173^gt mice. As to conditions: C57BL/6 mice; 20 μg intratumoral, four hours. The procedure:
Three groups of C57BL/6 mice and C57BL/6-Tmem173^gt mice (4-5 mice per group) were inoculated subcutaneously with 1×10^6 B16F10 tumor cells. Eight days post-inoculation the mice were injected with a single intratumoral dose of PBS, 20 μg of free 3-3 cAIMPdFSH, or 0.1 μg of 3-3 cAIMPdFSH loaded in PTGFN-overexpressing exosomes (exeSTING). Four hours post-injection the tumors, draining lymph nodes, spleens, and serum were collected and cytokine levels were measured. […] In addition to gene expression, serum cytokine profiles are showing same trend (FIG. 58).

Data set [3] can be described thus: Tumor pharmacokinetics after intratumoral injection. Type of data set: in vivo, C57BL/6 mice. As to conditions: B16F10 tumor. The method, then:
To examine the tumor pharmacokinetics of STING agonist, C57BL/6 mice were inoculated subcutaneously with 1×10^6 B16F10 murine melanoma cells (n=3 mice per group and time). Eight days post-inoculation, the tumors were injected intratumorally with 30 μg of free 3-3 cAIMPdFSH, 0.3 μg of free 3-3 cAIMPdFSH, or 0.3 μg 3-3 cAIMPdFSH loaded in PTGFRN-overexpressing exosomes. Five minutes, thirty minutes, two hours, 6 hours, 24 hours, and 48 hours after injection, tumors were excised and lysed with 6 volume of plasma. The concentration of 3-3 cAIMPdFSH was measured by LC-MS/MS, as described in Example 1. Free 3-3 cAIMPdFSH in both 30 μg and 0.3 μg was disappeared quickly from tumor, having half-life of around 10 minutes.

Data set [4] deals with IFNβ, CXCL9, CXCL10, IFNγ; serum cytokines. Briefly: Cytokine levels after subcutaneous injection in naïve mice. The format is in vivo, C57BL/6 mice. As to conditions: 20 μg free, four hours. The procedure:
To compare in vivo activity of free STING agonist and STING agonist-loaded exosomes beyond intratumoral dosing, naïve C57BL/6 mice were injected subcutaneously with PBS, exosomes, 20 μg of free 3-3 cAIMPdFSH or 0.2 μg 3-3 cAIMPdFSH loaded in PTGFRN-overexpressing exosomes. Four hours post-injection, lymph nodes, spleens, livers, and serum were collected and cytokine levels were measured.

For data set [5], the system named is IFNβ, CXCL9, CXCL10, IFNγ gene expression; serum cytokines. The experiment in a line: Cytokine levels after single intratumoral dose in B16F10 tumor-bearing mice. Type of data set: in vivo, C57BL/6 mice. As to conditions: 20 μg single intratumoral dose, four hours post-injection. The method, then:
Four groups of C57BL/6 mice (3-4 mice per group) were inoculated subcutaneously with 5×10^5 B16F10 tumor cells. Eight days post-inoculation the mice were injected with a single intratumoral dose of PBS, 20 μg of free ML RR-S2 CDA, 0.2 μg of free ML RR-S2 CDA, or 0.2 μg of ML RR-S2 CDA loaded in PTGFN-overexpressing exosomes (exo ML RR-S2 CDA). Four hours post-injection the tumors, draining lymph nodes, spleens, and serum were collected and cytokine levels were measured.
To confirm that the effects observed in FIGS. 20-23 were applicable to other STING agonists, B16F10 subcutaneous tumor-bearing mice were injected with 20 μg of free 3-3 cAIMPdFSH, 0.2 μg of free 3-3 cAIMPdFSH, or 0.2 μg of 3-3 cAIMPdFSH loaded in PTGFRN-overexpressing exosomes (exo 3-3 cAIMPdFSH).

Data set [6] relates to ovalbumin (OVA)-reactive T-cells. The experiment in a line: OVA-reactive memory T-cells by tetramer flow cytometry. Type of data set: in vivo, C57BL/6 mice. The settings on record: six days. The procedure: STING pathway agonism in dendritic cells enhances antigen presentation, IFNβ production, and recruits CD8+ memory T-cells to elicit a durable adaptive immune response. To determine whether Exo STING could induce a memory T-cell response to a defined antigen, an antigen-specific T-cell response study was carried out using purified ovalbumin (OVA). C57BL/6 mice were injected intraperitoneally with 200 μg OVA mixed with either PBS, 20 μg ML RR-S2, 0.2 μg ML RR-S2, or 0.2 μg ML RR-S2 loaded in PTGFRN-overexpressing exosomes (n=4-10 mice per group). Six days post-injection, spleens and mesenteric lymph nodes were collected, homogenized to a single-cell suspension, and live lymphocytes were enriched by density centrifugation. Isolated lymphocytes were analyzed by flow cytometry by measuring binding to immobilized tetrameric MHC class I bound to the OVA peptide SIINFEKL and phycoerythrin (PE) (iTAg Tetramer/PE—H-2 OVA; MBL®, Code #T03000). OVA-reactive memory T-cells were quantified by gating on PE, CD44, and CD8 positivity.

The test system of data set [7] is E.G7-OVA cells. The experiment in a line: E.G7-OVA T-cell lymphoma tumor growth, intratumoral injection. The format is in vivo, C57BL/6 mice. The method, then: To test this hypothesis, C57BL/6 mice were inoculated subcutaneously with 1×10^6 E.G7-OVA cells (ATCC®; CRL-2113™), a murine T-cell lymphoma cell line engineered to stably express OVA and allow for modeling antigen-specific T-cell responses in mice (n=5 mice per group). Ten, 13, and 16 days post-inoculation the mice were injected intratumorally with PBS, 20 μg ML RR-S2, 0.2 μg ML RR-S2, or 0.2 μg ML RR-S2 loaded in PTGFRN-overexpressing exosomes). […] Splenic T-cells from all groups were isolated and measured for OVA-specific reactivity as described in Example 11.

In the case of `Nc1ncnc2c1ncn2[C@@H]1O[C@@H]2COP(=O)(S)O[C@H]3[C@@H](F)[C@H](n4cnc5c(=O)[nH]cnc54)O[C@@H]3COP(O)(=S)O[C@H]2[C@H]1F` (some centres unmarked) [3-3 cAIMPdFSH, 3′3′-cAIMPdFSH], the primary tumor growth result in data set [1] (120 ng free) is reported as “no tumor regression observed”; in data set [1] (20 μg intratumoral days 5, 8, 11), “did not grow”. Besides, the “IFNβ gene expression in tumors, draining lymph node, spleen” value in data set [2] was “comparable in the 20 μg free STING agonist and 0.1 μg exosome-STING agonist groups”. The half-life in tumor result in data set [3] (0.3 μg free) and in data set [3] (30 μg free) was “around 10 minutes” each time. Further, in data set [4], the “IFNβ gene expression in lymph nodes, spleens, livers” value is listed as “significantly elevated”.

For the compound `Nc1ncnc2c1ncn2[C@@H]1O[C@@H]2COP(O)(=S)O[C@@H]3C(O)[C@@H](COP(O)(=S)O[C@H]2[C@H]1O)O[C@H]3n1cnc2c(N)ncnc21` (some centres unmarked) [ML RR-S2 CDA], the “IFNβ gene expression levels in the tumor” value in data set [5] was “higher than the 0.2 μg free STING agonist and PBS groups”. For the same compound, the “OVA-reactive T-cells in spleen and mesenteric lymph nodes” value in data set [6] (0.2 μg IP with 200 μg OVA) is “no activity in the spleen and only a modest response in mesenteric lymph nodes”; in data set [6] (20 μg IP with 200 μg OVA), “A greater proportion of OVA-reactive T-cells”. Also, the “tumor growth compared to PBS” value in data set [7] (0.2 μg intratumoral days 10, 13, 16) was “moderately attenuated tumor growth”; in data set [7] (20 μg intratumoral days 10, 13, 16), “dramatically prevented tumor growth”.
